Values of other authors as cited in patent publication US20170202917A1, “PHARMACEUTICAL COMPOSITION FOR PREVENTING OR TREATING SKIN RASH” (DAEWOONG PHARMACEUTICAL CO., LTD., priority 2014, published 2017).

Columns and labels:
skin rashes = details: prophylactic treatment

Row | Compound | overall incidence of erlotinib-related skin effects (ERSEs) (NSCLC and PC clinical trials) [%] | incidence of grade 3-4 ERSEs (NSCLC and PC clinical trials, of the patients) | time to development of rash after starting treatment (rash above the waist) [days] | improvement in skin rashes compared with placebo (skin rashes) [%]
1 | C#Cc1cccc(Nc2ncnc3cc(OCCOC)c(OCCOC)cc23)c1 [erlotinib] | 75 | about 10% | 7 to 10 | –
2 | CN(C)[C@@H]1C(O)=C(C(N)=O)C(=O)[C@@]2(O)C(O)=C3C(=O)c4c(O)cccc4[C@@](C)(O)[C@H]3C[C@@H]12 [tetracycline] | – | – | – | 30
